Legend:
advanced solid tumours = test: Investigator-assessed tumour response (RECIST version 1.1); assay type: in vivo, human
Description: Antitumour activity was assessed by the investigators according to Response Evaluation Criteria in Solid Tumor version 1.1 (RECIST) ([Eisenhauer et al, 2009]) through radiological tumour assessments performed every two cycles and/or at the end of treatment, whichever occurred first.

[1] = tested on: patients with advanced solid tumours
Description: This study was an open-label, multicentre, dose-escalating phase I study of rucaparib administered in combination with one of four different standard chemotherapeutic regimens (NCT01009190). […] The primary objective was to assess safety and tolerability and estimate the maximum tolerated dose (MTD) and/or select the recommended phase II dose of rucaparib in combination with chemotherapy. Secondary objectives were to characterise the pharmacokinetics (PK) and assess the antitumour activity of rucaparib when combined with chemotherapy.
Safety assessments included collection of adverse events (AEs) and serious AEs (defined by National Cancer Institute Common Terminology Criteria for Adverse Events version 3.0; [Pedersen et al, 2013]), as well as vital signs, physical examination, 12-lead electrocardiogram, laboratory assessments, and verification of concurrent medications. Safety variables and demographic data were presented descriptively. The safety analysis set included all enrolled patients who started treatment.

[2] = investigator-assessed, RECIST 1.1, All patients (N=85), all arms

CNCc1ccc(-c2[nH]c3cc(F)cc4c3c2CCNC4=O)cc1 [rucaparib]
disease control rate (CR, PR, or SD for ⩾12 weeks) (advanced solid tumours; across all cohorts, among patients with available data (77 of 85)): 68.8%
partial responses that were confirmed (advanced solid tumours; across all cohorts, of 9 patients with PR): 7 patients
Best response: Complete response (advanced solid tumours; [2]): 1 (1.2) n (%)
Best response: Partial response (advanced solid tumours; [2]): 9 (10.6) n (%)
Best response: Progressive disease (advanced solid tumours; [2]): 24 (28.2) n (%)
Best response: Stable disease (advanced solid tumours; [2]): 43 (50.6) n (%)
Patients who died of disease progression while on study ([1]; across treatment arms, assessed as unrelated to study drug): 7.1%
Anaemia ([1]; human, in vivo): 31 (36.5) n (%)
Asthenia ([1]; human, in vivo): 3 (3.5) n (%)
Constipation ([1]; human, in vivo): 22 (25.9) n (%)
Decreased appetite ([1]; human, in vivo): 17 (20.0) n (%)
Diarrhoea ([1]; human, in vivo): 17 (20.0) n (%)
Discontinued treatment with AE as the primary reason ([1]; human, in vivo): 18.4%
Fatigue ([1]; human, in vivo): 45 (52.9) n (%)
Grade ⩾3 AEs, patients ([1]; human, in vivo): 75.3%
Grade ⩾3 anaemia, patients ([1]; human, in vivo): 11.8%
Grade ⩾3 dyspnoea, patients ([1]; human, in vivo): 5.9%
Grade ⩾3 fatigue, patients ([1]; human, in vivo): 12.9%
Grade ⩾3 nausea, patients ([1]; human, in vivo): 7.1%
Grade ⩾3 neutropenia, patients ([1]; human, in vivo): 27.1%
Grade ⩾3 thrombocytopenia, patients ([1]; human, in vivo): 18.8%
Grade ⩾3 vomiting, patients ([1]; human, in vivo): 5.9%
Grade ⩾3 γ-glutamyltransferase increased, patients ([1]; human, in vivo): 5.9%
Lethargy ([1]; human, in vivo): 15 (17.6) n (%)
Leukopenia ([1]; human, in vivo): 7 (8.2) n (%)
Lymphopenia ([1]; human, in vivo): 6 (7.1) n (%)
Myalgia ([1]; human, in vivo): 7 (8.2) n (%)
Nausea ([1]; human, in vivo): 48 (56.5) n (%)
Neuropathy peripheral ([1]; human, in vivo): 10 (11.8) n (%)
Neutropenia ([1]; human, in vivo): 32 (37.6) n (%)
Patients who discontinued treatment because of AEs ([1]; human, in vivo): 25.9%
Patients who discontinued treatment because of neutropenia ([1]; human, in vivo): 3.5%
Patients who discontinued treatment because of platinum hypersensitivity ([1]; human, in vivo): 2.4%
Patients who discontinued treatment because of thrombocytopenia ([1]; human, in vivo): 2.4%
Stomatitis ([1]; human, in vivo): 14 (16.5) n (%)
Thrombocytopenia ([1]; human, in vivo): 27 (31.8) n (%)
Vomiting ([1]; human, in vivo): 28 (32.9) n (%)
≥1 treatment-related adverse event ([1]; human, in vivo): 80 (94.1) n (%)
Alopecia ([1]; treatment-related, any grade, All patients (N = 85), all arms): 15 (17.6) n (%)

Reference: PMC5379148, “A phase I study of intravenous and oral rucaparib in combination with chemotherapy in patients with advanced solid tumours” (British Journal of Cancer, 2017)
